Test results from patent publication US8513423B2 (Janssen Pharmaceutica, NV, priority 2010, dated 2013).
Substitutions are numbered along the chain they refer to. Where two headings read alike, the source gives them in different places.

What was measured:
[1] = molecular target: T1, mutant MGL (Homo sapiens, UniProt Q99685, L169S/L176S); assay: MGL ThermoFluor assay - mutant; assay type: binding
T1 construct: purified mutant MGL (mut-MGLL 11-313 L179S L186S)
T1 sequence (Q99685 1-303 L169S/L176S): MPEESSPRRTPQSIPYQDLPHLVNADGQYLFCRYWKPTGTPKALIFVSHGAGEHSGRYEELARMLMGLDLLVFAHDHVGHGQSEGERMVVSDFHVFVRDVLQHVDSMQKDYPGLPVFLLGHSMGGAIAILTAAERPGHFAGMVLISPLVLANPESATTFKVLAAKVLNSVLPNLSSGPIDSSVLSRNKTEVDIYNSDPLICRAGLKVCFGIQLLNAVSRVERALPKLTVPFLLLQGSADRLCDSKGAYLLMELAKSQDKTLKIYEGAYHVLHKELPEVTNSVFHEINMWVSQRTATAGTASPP
Outline: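 Thermal shift binding with 0.07 mg/ml L169S/L176S MGL, 100 μM 1,8-ANS, 200 mM NaCl, 0.001% Tween-20, 50 mM PIPES pH 7.0. Heated 40–90 °C at 1 °C/min, fluorescence (em 500 nm) tracked to give Tm; Kd fitted from 11-point concentration–Tm response, qKd when stocks quantified by qNMR.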

[2] = molecular target: T2, MGL (Rattus norvegicus, UniProt Q8R431); assay: 2-AG accumulation assay in rat brain homogenate; assay type: biochemical; settings: compound @1 μM, read-out: Rat Brain 2AG % VehCntrl (%) @1 μM
T2 construct: one g rat brain was homogenized; from tissue; host or cells: rat brain homogenate
T2 sequence (Q8R431 1-303): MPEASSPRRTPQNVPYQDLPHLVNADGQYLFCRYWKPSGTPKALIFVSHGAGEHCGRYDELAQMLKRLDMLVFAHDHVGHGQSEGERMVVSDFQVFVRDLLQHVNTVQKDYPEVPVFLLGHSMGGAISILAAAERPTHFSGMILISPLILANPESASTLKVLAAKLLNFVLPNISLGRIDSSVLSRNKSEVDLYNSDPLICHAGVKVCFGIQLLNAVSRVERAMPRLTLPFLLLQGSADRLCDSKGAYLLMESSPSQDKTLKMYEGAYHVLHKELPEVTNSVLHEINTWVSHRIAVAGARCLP
Outline: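 Rat brain homogenate was incubated with compound for 15 min at 37° C., after which CaCl2 was added to a final concentration of 10 mM. Incubation then continued for another 15 min at 37° C. in 5 mL total volume. Reactions were stopped by adding 6 mL of 2:1 chloroform/methanol. 2-AG in the organic phase was quantified by HPLC/MS.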

[3] = molecular target: T3, purified wild type MGL (wt-MGLL 6H-11-313) (Homo sapiens, UniProt Q99685); assay: MGL enzyme activity assay (4MU-B cleavage), wild type MGL; assay type: biochemical; settings: 10 μM 4MU-B, 5 nM enzyme, 37° C., read-out: MGL wild type inh IC50
T3 construct: purified wild type MGL (wt-MGLL 6H-11-313)
T3 sequence (Q99685 1-303): T1 sequence (Q99685 1-303 L169S/L176S) with S169L, S176L
Outline: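 Enzyme (5 nM final) cleaved 4MU-B (10 μM final) in 20 mM PIPES pH 7.0 with 150 mM NaCl and 0.001% Tween 20. Compounds were tested at 17 to 0.0003 μM final. Fluorescence (ex 335/em 440 nm) was monitored at 37° C for 5 min, and IC50 was fitted from fractional activity versus inhibitor concentration.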

[4] = 0.07 mg/ml mutant MGL, pH=7.0, read-out: MGL mutant ThermoFluor Kd
[5] = compound concentration measured by qNMR, read-out: MGL mutant ThermoFluor qKd (using qNMR conc.)

SMILES	Kd [1, 4]	2-AG accumulation, percent of vehicle control at 1 µM [2]	IC50 [3]	Kd [1, 5]
O=C(c1nccs1)N1CCC(C2CN(C(=O)c3sc4cc(F)ccc4c3Cl)C2)CC1 [Cpd 8, 4-{1-[(3-Chloro-6-fluoro-1-benzothiophen-2-yl)carbonyl]azetidin-3-yl}-1-(1,3-thiazol-2-ylcarbonyl)piperidine]	4 nM	523%	7 nM	
O=C(c1ccc(-c2ccc(C(F)(F)F)s2)cc1)N1CC(C2CCN(C(=O)c3nccs3)CC2)C1 [Cpd 18, 1-(1,3-Thiazol-2-ylcarbonyl)-4-[1-({4-[5-(trifluoromethyl)thiophen-2-yl]phenyl}carbonyl)azetidin-3-yl]piperidine]	3 nM	457%	12.5 nM	
O=C(c1ccc2nc(-c3ccccc3)oc2c1)N1CCC(C2CN(C(=O)c3cscn3)C2)CC1 [Cpd 67, 2-Phenyl-6-({4-[1-(1,3-thiazol-4-ylcarbonyl)azetidin-3-yl]piperidin-1-yl}carbonyl)-1,3-benzoxazole]		590%	66.5 nM	6.6 nM
O=C(c1ccc2c(ccn2-c2ccc(F)c(F)c2)c1)N1CCC(C2CN(C(=O)c3cscn3)C2)CC1 [Cpd 79, 1-(3,4-Difluorophenyl)-5-({4-[1-(1,3-thiazol-4-ylcarbonyl)azetidin-3-yl]piperidin-1-yl}carbonyl)-1H-indole]		946%	9 nM	3.3 nM
Cc1c(C(=O)N2CCC(C3CN(C(=O)c4ccc[nH]4)C3)CC2)sc2cc(C(F)(F)F)ccc12 [Cpd 62]	1.3 nM	422%	< 5 nM	0.6 nM
Cc1c(C(=O)N2CCC(C3CN(C(=O)c4nccs4)C3)CC2)sc2cc(C(F)(F)F)ccc12 [Cpd 60, 1-{[3-Methyl-6-(trifluoromethyl)-1-benzothiophen-2-yl]carbonyl}-4-[1-(1,3-thiazol-2-ylcarbonyl)azetidin-3-yl]piperidine]	0.8 nM	508%	10 nM	0.5 nM
O=C(c1cscn1)N1CCC(C2CN(C(=O)c3sc4cc(C(F)(F)F)ccc4c3Cl)C2)CC1 [Cpd 35, 4-(1-{[3-Chloro-6-(trifluoromethyl)-1-benzothiophen-2-yl]carbonyl}azetidin-3-yl)-1-(1,3-thiazol-4-ylcarbonyl)piperidine]	2.5 nM	724%	< 5 nM	5.7 nM
O=C(c1nccs1)N1CC(C2CCN(C(=O)c3sc4cc(C(F)(F)F)ccc4c3Cl)CC2)C1 [Cpd 69, 1-{[3-Chloro-6-(trifluoromethyl)-1-benzothiophen-2-yl]carbonyl}-4-[1-(1,3-thiazol-2-ylcarbonyl)azetidin-3-yl]piperidine]		539%	< 5 nM	1.2 nM
O=C(c1ccc(-c2ccc(C(F)(F)F)s2)cc1)N1CCC(C2CN(C(=O)c3nccs3)C2)CC1 [Cpd 54, 4-[1-(1,3-Thiazol-2-ylcarbonyl)azetidin-3-yl]-1-({4-[5-(trifluoromethyl)thiophen-2-yl]phenyl}carbonyl)piperidine]		736%	< 5 nM	1.8 nM
O=C(c1ccc2c(ccn2-c2ccc(F)c(F)c2)c1)N1CCC(C2CN(C(=O)c3ccc[nH]3)C2)CC1 [Cpd 80, 1-(3,4-Difluorophenyl)-5-({4-[1-(1H-pyrrol-2-ylcarbonyl)azetidin-3-yl]piperidin-1-yl}carbonyl)-1H-indole]		860%	< 5 nM	4.9 nM
O=C(c1cscn1)N1CC(C2CCN(C(=O)c3sc4cc(C(F)(F)F)ccc4c3Cl)CC2)C1 [Cpd 70, 1-{[3-Chloro-6-(trifluoromethyl)-1-benzothiophen-2-yl]carbonyl}-4-[1-(1,3-thiazol-4-ylcarbonyl)azetidin-3-yl]piperidine]		561%	8 nM	0.6 nM
O=C(c1ccc2c(ccn2-c2ccc(C(F)(F)F)cc2)c1)N1CC(C2CCN(C(=O)c3nccs3)CC2)C1 [Cpd 31, 5-({3-[1-(1,3-Thiazol-2-ylcarbonyl)piperidin-4-yl]azetidin-1-yl}carbonyl)-1-[4-(trifluoromethyl)phenyl]-1H-indole]	2.6 nM	779%	< 5 nM	
O=C(c1ccc(-c2ccc(C(F)(F)F)s2)cc1)N1CC(C2CCN(C(=O)c3ccc[nH]3)CC2)C1 [Cpd 24, 1-(1H-Pyrrol-2-ylcarbonyl)-4-[1-({4-[5-(trifluoromethyl)thiophen-2-yl]phenyl}carbonyl)azetidin-3-yl]piperidine]	19.9 nM	298%	37.9 nM	
O=C(c1ccc(Cc2ccc(C(F)(F)F)cc2)cc1)N1CC(C2CCN(C(=O)c3nccs3)CC2)C1 [Cpd 27, 1-(1,3-Thiazol-2-ylcarbonyl)-4-[1-({4-[4-(trifluoromethyl)benzyl]phenyl}carbonyl)azetidin-3-yl]piperidine]	13.3 nM	634%	9 nM	
O=C(c1ccc(-c2cccc(C(F)(F)F)c2)cc1)N1CC(C2CCN(C(=O)c3cscn3)CC2)C1 [Cpd 10, 1-(1,3-Thiazol-4-ylcarbonyl)-4-(1-{[3′-(trifluoromethyl)biphenyl-4-yl]carbonyl}azetidin-3-yl)piperidine]	11 nM	194%	15.5 nM	
O=C(c1ccc(Cc2cccc(C(F)(F)F)c2)cc1)N1CC(C2CCN(C(=O)c3nccs3)CC2)C1 [Cpd 19, 1-(1,3-Thiazol-2-ylcarbonyl)-4-[1-({4-[3-(trifluoromethyl)benzyl]phenyl}carbonyl)azetidin-3-yl]piperidine]	9 nM	559%	< 5 nM	
O=C(c1ccc[nH]1)N1CC(C2CCN(C(=O)c3sc4cc(C(F)(F)F)ccc4c3Cl)CC2)C1 [Cpd 71, 1-{[3-Chloro-6-(trifluoromethyl)-1-benzothiophen-2-yl]carbonyl}-4-[1-(1H-pyrrol-2-ylcarbonyl)azetidin-3-yl]piperidine]		552%	12 nM	1.2 nM
O=C(c1ccc(Cc2cccc(C(F)(F)F)c2)cc1)N1CCC(C2CN(C(=O)c3cscn3)C2)CC1 [Cpd 58, 4-[1-(1,3-Thiazol-4-ylcarbonyl)azetidin-3-yl]-1-({4-[3-(trifluoromethyl)benzyl]phenyl}carbonyl)piperidine]		370%	< 5 nM	6.9 nM
O=C(c1ccc(-c2cccc(C(F)(F)F)c2)cc1)N1CC(C2CCN(C(=O)c3nccs3)CC2)C1 [Cpd 16, 1-(1,3-Thiazol-2-ylcarbonyl)-4-(1-{[3′-(trifluoromethyl)biphenyl-4-yl]carbonyl}azetidin-3-yl)piperidine]	2 nM	493%	7 nM	
O=C(c1ccc2c(ccn2-c2ccc(C(F)(F)F)cc2)c1)N1CCC(C2CN(C(=O)c3ccc[nH]3)C2)CC1 [Cpd 77, 5-({4-[1-(1H-Pyrrol-2-ylcarbonyl)azetidin-3-yl]piperidin-1-yl}carbonyl)-1-[4-(trifluoromethyl)phenyl]-1H-indole]		714%	< 5 nM	5 nM
